Experiments:
[1] = system: Human primary culture prostate epithelial cells; assay: Apoptosis by cell death detection ELISA in primary culture prostate epithelial cells; assay type: cell-based; conditions: various concentrations simvastatin, 16 hours; FIG. 7
Protocol: Human primary culture prostate epithelial cells were treated with various concentrations simvastatin or were mock treated as indicated at 37 °C for 16 hours. Subsequently the cells were lysed and apoptosis was quantified by cell death detection ELISA (Roche).

Akt1 = Akt1 phosphorylation (Ser-473) by immunoblot, LNCaP cells; assay type: cell-based, human; conditions: FIG. 4A
Protocol: LNCaP cells were used for all experiments shown. Prior to challenge with EGF (2 or 20 ng/ml), some groups of cells were treated with filipin (2 μg/ml) (lanes 7-12) for 1 h. Other cells (lanes 4-6, 10-12) were subsequently incubated with cyclodextrin/cholesterol complexes (Cholesterol) for 1 h to replete cholesterol (FIG. 4A). In this and subsequent panels, lysates were isolated following the various treatments and processed for immunoblot analysis. p-Akt refers to a phosphorylated form of Akt1 detected with a phospho-specific Ab ([…]). […] Cell lysates were isolated following the various treatments and processed for immunoblot analysis. p-Akt=phosphorylated form of Akt detected with a phospho-specific Ab ([…]). […] In these experiments the apoptosis of cells treated with simvastatin or mock-treated, with or without raft reconstitution, was quantified by cell death detection ELISA (Roche). Cells were either mock-treated or treated with various doses of simvastatin as indicated for 16 hours and the amount of apoptosis was quantified by ELISA and is graphically represented as absorbance at 405 nm-490 nm vs. dose of statin drug±SD from triplicate determinations (FIG. 6B). The cells were treated either in simvastatin (Sim; 10 μM) or simvastatin (Sim) and cyclodextrin/cholesterol complex (+cholesterol) for 4 hours and the amount of apoptosis was quantified by ELISA (FIG. 6C). […]

LNCaP-Cav-1 cells = assay: EGFR and Akt1 phosphorylation by immunoblot, caveolin-1 transfected LNCaP cells; assay type: cell-based, human; conditions: 2 μg/ml filipin 1 h, 5 ng/ml EGF 20 min, FIG. 4F
Protocol: LNCaP cells were used for all experiments shown. Prior to challenge with EGF (2 or 20 ng/ml), some groups of cells were treated with filipin (2 μg/ml) (lanes 7-12) for 1 h. Other cells (lanes 4-6, 10-12) were subsequently incubated with cyclodextrin/cholesterol complexes (Cholesterol) for 1 h to replete cholesterol (FIG. 4A). In this and subsequent panels, lysates were isolated following the various treatments and processed for immunoblot analysis. p-Akt refers to a phosphorylated form of Akt1 detected with a phospho-specific Ab (Ser-473). Cells were serum-starved overnight, then pretreated with 5 mM cyclodextrin for the indicated times (lanes 1-6), or treated for 1 h with varying concentrations of cyclodextrin (lanes 7-10), then treated immediately afterward with vehicle or with 5 ng/ml EGF (FIG. 4B). Cells were either mock-treated or treated with varying doses of filipin as indicated for 1 h followed by 5 ng/ml EGF treatment (FIG. 4C). Serum-containing medium was removed and cells were treated immediately with 2 μg/ml filipin alone under serum-free conditions for the times shown (FIG. 4D). No change in EGFR or Akt1 phosphorylation was observed when serum was removed and cells were not treated with filipin (not shown). […]

LNCaP cells [2] = assay: Cell viability by Trypan blue exclusion; assay type: cell-based, human; conditions: 1 h after filipin treatment, at the doses used; FIG. 2
Protocol: Mock- or filipin (2 μg/ml)-pretreated cells were incubated in serum-free medium with or without cholesterol/cyclodextrin (Cholesterol) complexes for 1 h at 37° C. followed by EGF treatment for 20 min. (FIG. 2A). All cells were subjected to SDEM and the I- and S-fractions analyzed by immunoblot. p-EGFR indicates EGFR phosphorylated on Y1173 detected with a phospho-specific Ab. Cell viability measured by Trypan blue exclusion 1 h after treatment of cells with filipin (FIG. 2B).

LNCaP cells [3] = assay: Apoptosis assays (TUNEL/flow cytometry, cell death detection ELISA, DNA ladder) in LNCaP cells; assay type: cell-based, human; conditions: serum-free, 20 μM LY294002 20 h, 2 μg/ml filipin 1 h, FIG. 3
Protocol: Apoptosis was quantified by TUNEL in combination with flow cytometry (FIG. 3A). LNCaP cells were seeded 24 h before treatments in 6-well plates at a density of 2-4×10^5/well. Conditions shown are: 20 h in serum-free medium (SFM); 20 μM LY294002 (LY); 20 μM LY294002 with 10 ng/ml EGF treatment (LY+E); 2 μg/ml filipin for 1 h (F); filipin treatment as (F) with 10 ng/ml EGF for 20 h (F+E); treatment with 2 μg/ml filipin and cyclodextrin/cholesterol complexes (C) for 1 h, followed by incubation with serum-free medium containing 20 μM LY294002 and 10 ng/ml EGF for 20 h (F+C+LY+E). Quantitative measurement of DNA fragmentation was performed with a cell death detection ELISA kit (FIG. 3B). […]
A quantitative sandwich ELISA was performed to measure mono- and oligonucleosomes in the cytoplasmic fraction of cell lysates according to the manufacturer's manual (Cell death detection ELISA) (Roche, Indianapolis, Ind.). Briefly, 1.5-2.0×10^5 cells/well were seeded in 6-well plates for 24 h, cell lysates were collected after various treatments as indicated, and the amount of histone-associated DNA fragments was quantified by spectrophotometric measurement of peroxidase activity retained in the immunocomplex (415 nm) against the substrate solution as a blank (490 nm). Apoptosis was also evaluated by the TUNEL method, using the In Situ Cell Death Detection Kit (Roche, Indianapolis, Ind.).

PC-3 cells = assay: EGFR and Akt1 phosphorylation by immunoblot, PC-3 cells; assay type: cell-based, human; conditions: 2 μg/ml filipin 1 h, 5 ng/ml EGF 20 min, FIG. 4F
Protocol: Prior to challenge with EGF (2 or 20 ng/ml), some groups of cells were treated with filipin (2 μg/ml) (lanes 7-12) for 1 h. […] In this and subsequent panels, lysates were isolated following the various treatments and processed for immunoblot analysis. p-Akt refers to a phosphorylated form of Akt1 detected with a phospho-specific Ab (Ser-473). […] LNCaP-Cav-1 cells and PC-3 cells were mock-treated or treated with 2 μg/ml filipin for 1 h at 37° C. […] Prior to the collection of cell lysates and immunoblot analysis, cells were stimulated with 5 ng/ml EGF for 20 min at 37° C.
Human PCa cell lines LNCaP and PC-3 were purchased from the American Type Culture Collection (ATCC; Rockville, Md.). Both cell lines were cultured in RPMI 1640 supplemented with 10% heat-inactivated FBS.

EGFR = EGFR phosphorylation by immunoblot of detergent fractions, LNCaP cells; assay type: cell-based, human
Protocol: Mock- or filipin (2 μg/ml)-pretreated cells were incubated in serum-free medium with or without cholesterol/cyclodextrin (Cholesterol) complexes for 1 h at 37° C. followed by EGF treatment for 20 min. […] All cells were subjected to SDEM and the I- and S-fractions analyzed by immunoblot. p-EGFR indicates EGFR phosphorylated on Y1173 detected with a phospho-specific Ab. Cell viability measured by Trypan blue exclusion 1 h after treatment of cells with filipin (FIG. 2B).
LNCaP cells were used for all experiments shown. Prior to challenge with EGF (2 or 20 ng/ml), some groups of cells were treated with filipin (2 μg/ml) (lanes 7-12) for 1 h. Other cells (lanes 4-6, 10-12) were subsequently incubated with cyclodextrin/cholesterol complexes (Cholesterol) for 1 h to replete cholesterol (FIG. 4A). In this and subsequent panels, lysates were isolated following the various treatments and processed for immunoblot analysis. p-Akt refers to a phosphorylated form of Akt1 detected with a phospho-specific Ab (Ser-473). Cells were serum-starved overnight, then pretreated with 5 mM cyclodextrin for the indicated times (lanes 1-6), or treated for 1 h with varying concentrations of cyclodextrin (lanes 7-10), then treated immediately afterward with vehicle or with 5 ng/ml EGF (FIG. 4B). […]

[4] = system: prostate glandular hyperplasia; conditions: dogs; published evidence (30); cited from earlier work

Row | Compound | apoptosis in normal prostatic cells [1] | EGF-induced Akt1 phosphorylation (Akt1; 2 μg/ml filipin 1 h, 20 ng/ml EGF) | constitutive and EGF-induced Akt1 phosphorylation (Akt1; varying filipin doses and times, C, D) | ligand-induced Akt1 phosphorylation (LNCaP-Cav-1 cells) | ligand-induced EGFR phosphorylation (LNCaP-Cav-1 cells) | cells that excluded Trypan blue (LNCaP cells [2]) [%] | apoptosis (LNCaP cells [3]) | ligand-induced Akt1 phosphorylation (PC-3 cells) | ligand-induced EGFR phosphorylation (PC-3 cells) | ligand-dependent EGFR phosphorylation in the I-fraction (EGFR; filipin pretreatment 2 μg/ml, then EGF 20 min, FIG. 2) | constitutive and EGF-induced EGFR phosphorylation (EGFR; varying filipin doses and times, FIG. 4A, C, D) | reduction of prostate glandular hyperplasia [4] | toxicity [4]
1 | CCC(C)(C)C(=O)O[C@H]1C[C@@H](C)C=C2C=C[C@H](C)[C@H](CC[C@@H]3C[C@@H](O)CC(=O)O3)[C@H]21 [simvastatin] | does not cause apoptosis |  |  |  |  |  |  |  |  |  |  |  | 
2 | CCCCC[C@@H](O)[C@H]1C(=O)O[C@H](C)[C@@H](O)/C=C/C=C/C=C/C=C/C=C(\C)[C@@H](O)C[C@H](O)C[C@H](O)C[C@H](O)C[C@H](O)C[C@H](O)C[C@@H]1O [filipin, Filipin] |  | substantially reduced | decreased with filipin treatment in a dose- and time-dependent fashion | suppressed | suppressed | 100 | stimulated apoptosis to a similar extent as the PI3K inhibitor | suppressed | suppressed | suppressed | decreased with filipin treatment in a dose- and time-dependent fashion | up to 75% | no toxicity

— patent publication US20050171032A1, “Methods for the treatment of cancer” (priority 2002, published 2005)
